Assays:
Experiment in all cases: relative viability (nuclei count vs DMSO), 5 days (fraction); higher = more cells survive
[1] = compound: C(C(=O)C(=O)O)Br [Bromopyruvate] + O=C(c1cc(Cc2n[nH]c(=O)c3ccccc23)ccc1F)N1CCN(C(=O)C2CC2)CC1 [Olaparib] (partner 8 µM)
Outline: (§1)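 After 5 days of treatment, lung cancer cells in 1536-well plates were fixed and stained in a single step (final 0.05% Triton X-100, 1% formaldehyde, 1 ug/ml Hoechst) and their nuclei counted on 4× images. Treatment had been applied by pin tool the day after seeding as one drug alone or as a fixed anchor-drug dose with five library-drug doses (not always all listed) in √10 steps. Relative viability is the nuclei count of treated wells divided by that of vehicle wells, and values are medians of duplicate plates.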

[2] = compound: CC(O)(CS(=O)(=O)c1ccc(F)cc1)C(=O)Nc1ccc(C#N)c(C(F)(F)F)c1 [Bicalutamide] + CC(=O)Nc1cccc(-n2c(=O)n(C3CC3)c(=O)c3c(Nc4ccc(I)cc4F)n(C)c(=O)c(C)c32)c1 [Trametinib] (partner 0.02 µM)
Outline: as §1

[3] = compound: CC(O)(CS(=O)(=O)c1ccc(F)cc1)C(=O)Nc1ccc(C#N)c(C(F)(F)F)c1 [Bicalutamide] + COc1cccc2cc(-c3nc([C@H]4CC[C@H](C(=O)O)CC4)n4ncnc(N)c34)[nH]c12 [OSI-027] (partner 0.5 µM)
Outline: as §1

[4] = compound: CC(O)(CS(=O)(=O)c1ccc(F)cc1)C(=O)Nc1ccc(C#N)c(C(F)(F)F)c1 [Bicalutamide] + C[C@@H](Oc1cc(-c2cnn(C3CCNCC3)c2)cnc1N)c1c(Cl)ccc(F)c1Cl [Crizotinib] (partner 1 µM)
Outline: as §1

Cell Line	relative viability ([1]; first compound 1 µM)	relative viability ([1]; first compound 3.162 µM)	relative viability ([1]; first compound 10 µM)	relative viability ([1]; first compound 31.62 µM)	relative viability ([1]; first compound 100 µM)	relative viability ([2]; first compound 0.08 µM)	relative viability ([2]; first compound 0.253 µM)	relative viability ([2]; first compound 0.8 µM)	relative viability ([2]; first compound 2.53 µM)	relative viability ([3]; first compound 0.08 µM)	relative viability ([3]; first compound 0.253 µM)	relative viability ([3]; first compound 0.8 µM)	relative viability ([3]; first compound 2.53 µM)	relative viability ([4]; first compound 0.08 µM)	relative viability ([4]; first compound 0.253 µM)	relative viability ([4]; first compound 0.8 µM)	relative viability ([4]; first compound 2.53 µM)
NCI-H2342	0.477	0.367	0.376	0.377	0.344	0.771	0.807	0.768	0.805	0.629	0.593	0.63	0.551				
SK-MES-1	0.802	0.738	0.85	0.626	0.554	0.534	0.508	0.456	0.499	0.601	0.607	0.665	0.491	1.03	0.902	1.02	1.01
NCI-H1993	1.56	1	0.927	1.09	1.02	0.492	0.519	0.536	0.56	0.479	0.594	0.523	0.511		0.83	0.978	0.778
HCC-366	0.365	0.323	0.345	0.321	0.284	0.388	0.231	0.454	0.284	0.955	0.848	1.08	0.718	0.599	0.473	0.698	0.328
201T	0.862	0.824	0.86	0.84	0.88	0.703	0.725	0.7	0.738	0.727	0.609	0.735	0.736	1.04	0.942	1.01	1.06
HCC-827	0.757	0.706	0.732	0.616	0.588	0.58	0.459	0.552	0.547	0.795	0.697	0.86	0.751	0.922	0.911	0.942	0.952
NCI-H650	0.324	0.378	0.379	0.278	0.206	1.04	1.01	1.12	0.934	0.559	0.507	0.524	0.432	0.725	0.645	0.932	0.438
NCI-H2085	0.794	0.81	0.772	0.818	0.551	0.513	0.554	0.535	0.404	0.832	0.642	0.788	0.628	0.904	0.822	0.816	0.745
NCI-H596	0.755	0.645	0.671	0.754	0.782	0.76	0.765	0.994	0.952	0.854	0.659	0.845	0.763	0.898	1.51	1.08	1.04
SK-LU-1	0.425	0.416	0.492	0.367	0.424	0.52	0.565	0.576	0.443	0.371	0.39	0.358	0.276	0.936	0.967	1.08	0.854
A-427	0.664	0.758	0.782	0.693	0.774	0.782	0.731	0.845	0.688	0.489	0.479	0.584	0.398	0.934	0.967	0.915	0.804
NCI-H460	0.457	0.404	0.469	0.397	0.462	0.139	0.129	0.128	0.129	0.772	0.601	1.04	0.545	0.896	0.798	1.28	0.825
NCI-H1703	0.648	0.418	0.335	0.633	0.502									0.621	0.511	0.624	0.397
NCI-H1792	0.0016	0.469	0.532	0.582	0.68	0.439	0.362	0.542	0.434	0.731	0.634	0.855	0.768	0.922	0.888	1.02	1.02
Calu-6	0.579	0.581	0.686	0.55	0.417									0.865	0.795	0.914	0.727
SW 1573	0.555	0.469	0.475	0.358	0.0623	0.668	0.473	0.748	0.608	0.629		0.734	0.656	0.972	0.761	1.08	0.721
RERF-LC-KJ	0.981	0.857	0.954	0.942	0.852	0.968	0.909	1.07	0.81	0.679	0.56	0.563	0.543	0.874	0.849	0.872	0.855
EMC-BAC-2	0.499	0.481	0.408	0.516	0.458	0.911	0.771	0.891	0.728	0.404	0.374	0.364	0.246	0.781	0.716	0.904	0.586
LK-2	0.827	0.816	0.815	0.591	0.717	0.652	0.672	1.15	0.742	0.195	0.189	0.194	0.207	0.252	0.209	0.2	0.225
NCI-H2228	0.813	0.635	0.711	0.567	0.647	0.39	0.54	0.616	0.34	0.517	0.756	0.811	0.603	0.443	0.52	0.754	0.463
NCI-H322M	0.715	0.82	0.743	0.737	0.687	0.537	0.541	0.502	0.503	0.6	0.524	0.568	0.474	1.05	0.858	1.16	0.868
NCI-H1975	0.858	0.79	1.11	0.755	0.605	0.323	0.412	0.386	0.339	0.741	0.642	0.746	0.633	0.97	0.915	1.08	0.781

Cell Line	relative viability ([1]; first compound 1 µM)	relative viability ([1]; first compound 3.162 µM)	relative viability ([1]; first compound 10 µM)	relative viability ([1]; first compound 31.62 µM)	relative viability ([1]; first compound 100 µM)	relative viability ([2]; first compound 0.08 µM)	relative viability ([2]; first compound 0.253 µM)	relative viability ([2]; first compound 0.8 µM)	relative viability ([2]; first compound 2.53 µM)	relative viability ([3]; first compound 0.08 µM)	relative viability ([3]; first compound 0.253 µM)	relative viability ([3]; first compound 0.8 µM)	relative viability ([3]; first compound 2.53 µM)	relative viability ([4]; first compound 0.08 µM)	relative viability ([4]; first compound 0.253 µM)	relative viability ([4]; first compound 0.8 µM)	relative viability ([4]; first compound 2.53 µM)
NCI-H1944	0.395	0.432	0.429	0.419	0.402	0.408	0.393	0.421	0.397	0.476	0.292	0.442	0.389	1.07	0.982	1.28	1.12
LU99A	0.267	0.237	0.241	0.26	0.134	0.529	0.445	0.6	0.495	0.282	0.258	0.345	0.233	0.65	0.451	0.602	0.362
NCI-H2405	0.879	0.859	0.916		0.402	0.674	0.606	0.78	0.638	0.651	0.568	0.624	0.632	0.913	0.817	0.962	0.837
NCI-H2023	0.452	0.455	0.465	0.544	0.551	0.547	0.52	0.556	0.382	0.44	0.338	0.427	0.271	0.691	0.601	0.679	0.462
HCC-15	0.745	0.735	0.697	0.734	0.699	0.384	0.338	0.412	0.371	0.71	0.612	0.908	0.571	0.82	0.767	1.01	0.882
HCC-44	0.939	0.932	0.969	0.938	0.972	1.16	1.09	1.07	1.1	0.723	0.403	0.66	0.477	0.838	0.817	0.832	0.968
COR-L23	0.398	0.342	0.349	0.319	0.129	0.616	0.545	0.71	0.579	0.814	0.751	0.955	0.705	0.678	0.552	0.703	0.449
HCC-78	0.762	0.811	0.944	0.776	0.848	0.94	0.653	0.86	0.779	0.381	0.371	0.43	0.352	0.355	0.362	0.37	0.319
NCI-H1299	0.937	0.951	0.963	0.979	0.882									0.969	0.93	0.957	0.911
NCI-H838	0.758	0.757	0.86	0.781	0.686	0.553	0.419	0.661	0.293	0.435	0.333	0.449	0.36	0.823	0.762	0.833	0.602
ABC-1	0.775				0.566					0.46	0.448	0.45	0.454	1.15	1.09	1.16	0.848
NCI-H1793	0.841	0.95	0.925	0.921	0.89	0.382		0.448	0.439	0.278	0.238	0.302	0.269				
NCI-H1648	0.731	0.92	0.978	1.11	0.982			0.395	0.546		0.299	0.29	0.225				
NCI-H1563										0.764	0.698	0.804	0.65	0.863	0.861	0.794	0.743
A549		0.286	0.403	0.356	0.3									0.738	0.708	0.917	0.485
NCI-H522	0.615	0.54	0.693	0.643	0.477	0.661	0.723	0.813	0.8	0.726	0.685	0.775	0.641				
NCI-H1623										0.43	0.447	0.487	0.531				
SW 900	0.892	0.874	0.936	0.8	0.821	0.778	0.678	0.756	0.809	0.498	0.531	0.572	0.347				
NCI-H1395	0.447	0.452	0.476	0.52	0.443	0.986	1.04	1.12	0.948	0.781	0.538	0.76	0.454				
IA-LM	0.839	0.857	0.855	0.98	0.941									1.14	0.819	0.88	1.02
EBC-1	0.691	0.594	0.741	0.617	0.564									0.166	0.185	0.186	0.185

— the supplement of paper PMC10307832
